Experimental data as given in patent EP3958980B1, “TARGETED NOVEL TRIAZOLOTHIADIAZINE DERIVATIVES FOR THE TREATMENT OF LUNG CANCER” (Anadolu Universitesi, priority 2020, dated 2021).
Several values for one entry are separate records, joined by “and”; a condition that tells them apart may be missing. Identical values can stand only once.

Legend:
A549 cells [1] = experiment: JC-1 staining, mitochondrial membrane integrity by flow cytometry; format: cell-based, human; settings: 24 hours, IC50 concentrations
Protocol: After the active compounds were determined with the MTT assay, the determination of mitochondrial membrane integrity in A549 cells depending on IC50 concentrations were carried out in flow cytometry with BD, Pharmingen flow cytometry kit according to the manufacturer's recommendations. Briefly, the cells were seeded with optimal density (must not exceed 1×10^6 cell/mL). Following this, the cells were incubated with concentrations and time suitable for the compounds to be tested. After treatment, each cell suspension was transferred into a 15 mL polystyrene centrifuge tube and the cells were centrifuged at 400 × g for 5 minutes at room temperature, and supernatant was removed. Later, 0.5 mL freshly prepared working solution was added to each pellet and was vortexed. The cells were incubated in JC-1 working solution at 37 °C for 10-15 minutes and they were washed twice. In the first wash, 2 mL 1X assay buffer was added and the cells were precisely suspended. Following this, the cells were centrifuged at 400 × g for 5 minutes and the supernatant was removed carefully. In the next wash, 1 mL 1X assay buffer was added and was vortexed. After the cells were centrifuged at 400 × g for 5 minutes, each cell pellet was suspended in a 0.5 mL 1X assay buffer and was vortexed. Finally, the cell is analyzed with flow cytometry.

A549 cells [2] = experiment: Cell cycle arrest by flow cytometry; format: cell-based, human; settings: IC50 doses, 24 hours
Protocol: After the active compounds were determined with the MTT assay, their effects on the cell cycle in A549 cells depending on IC50 concentrations were carried out according to the manufacturer's recommendations. Briefly, the cells were suspended in a citrate buffer solution. The cells were centrifuged at 400 × g for 5 minutes at room temperature. The supernatant was removed and 250 µL solution A was added on the pellet. Following this, 200 µL solution B was added and it was kept at room temperature 10 minutes. Afterwards 200 µL solution C was added and it was kept at +4 °C for 10 minutes. The cells were analyzed with flow cytometry using BD Biosciences ModFit software.

COX-1 = molecular target: T1, COX-1 (Homo sapiens, UniProt P23219); experiment: COX activity assay (colorimetric kit) on lysates of treated A549 cells, COX-1; format: cell-based; settings: 24 hours incubation, IC50 concentrations
T1 construct: endogenous in cells; host or cells: A549
T1 sequence (P23219 24-599): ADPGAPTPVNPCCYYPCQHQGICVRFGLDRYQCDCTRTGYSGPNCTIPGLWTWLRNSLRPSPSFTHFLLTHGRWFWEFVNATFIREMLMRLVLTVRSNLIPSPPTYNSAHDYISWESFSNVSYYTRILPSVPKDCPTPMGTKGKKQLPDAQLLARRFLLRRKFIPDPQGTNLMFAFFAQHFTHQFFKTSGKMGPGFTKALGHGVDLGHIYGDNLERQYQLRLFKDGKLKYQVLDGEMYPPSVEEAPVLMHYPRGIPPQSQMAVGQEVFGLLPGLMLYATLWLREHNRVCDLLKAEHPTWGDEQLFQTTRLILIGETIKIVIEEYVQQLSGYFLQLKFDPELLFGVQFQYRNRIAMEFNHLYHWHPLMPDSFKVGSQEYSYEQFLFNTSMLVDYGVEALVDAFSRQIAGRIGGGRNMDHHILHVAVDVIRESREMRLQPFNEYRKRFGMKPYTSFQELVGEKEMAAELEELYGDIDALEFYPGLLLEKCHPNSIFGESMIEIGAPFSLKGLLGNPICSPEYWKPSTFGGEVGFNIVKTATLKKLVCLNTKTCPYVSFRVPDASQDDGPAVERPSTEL
Protocol: (§1) The intracellular COX, Akt and ROCK inhibitory effects of the active compounds determined with the MTT assay, were measured with the colorimetric assay according to the manufacturer's recommendations.
(§2) COX activity was carried out using Cayman COX activity assay kit in compliance with the manufacturer's recommendations. Briefly, 150 µL of each sample was kept in boiling water for 5 minutes and centrifuged at 8000 × g for 1 minute and it was used to obtain background values. […] 110 µL assay solution, 10 µL hemin and 40 µL sample, 10 µL DuP-697 or SC-560 was added to the inhibitor wells (DuP-697 inhibits COX-2 activity; while SC-560 inhibits COX-1 activity). The plate was shaked for a few seconds and it was left at 25 °C for 5 minutes. 20 µL colorimetric substrate was added to all wells. Moreover, a reaction was started by adding 20 µL arachidonic acid solution and the plate was shaked for a few seconds and it was left at 25 °C for 5 minutes. The absorbance values were read at 540 nm.

COX-2 = molecular target: T2, COX-2 (Homo sapiens, UniProt P35354); experiment: COX activity assay (colorimetric kit) on lysates of treated A549 cells, COX-2; format: cell-based; settings: 24 hours incubation, IC50 concentrations
T2 construct: endogenous in cells; host or cells: A549
T2 sequence (P35354 18-604): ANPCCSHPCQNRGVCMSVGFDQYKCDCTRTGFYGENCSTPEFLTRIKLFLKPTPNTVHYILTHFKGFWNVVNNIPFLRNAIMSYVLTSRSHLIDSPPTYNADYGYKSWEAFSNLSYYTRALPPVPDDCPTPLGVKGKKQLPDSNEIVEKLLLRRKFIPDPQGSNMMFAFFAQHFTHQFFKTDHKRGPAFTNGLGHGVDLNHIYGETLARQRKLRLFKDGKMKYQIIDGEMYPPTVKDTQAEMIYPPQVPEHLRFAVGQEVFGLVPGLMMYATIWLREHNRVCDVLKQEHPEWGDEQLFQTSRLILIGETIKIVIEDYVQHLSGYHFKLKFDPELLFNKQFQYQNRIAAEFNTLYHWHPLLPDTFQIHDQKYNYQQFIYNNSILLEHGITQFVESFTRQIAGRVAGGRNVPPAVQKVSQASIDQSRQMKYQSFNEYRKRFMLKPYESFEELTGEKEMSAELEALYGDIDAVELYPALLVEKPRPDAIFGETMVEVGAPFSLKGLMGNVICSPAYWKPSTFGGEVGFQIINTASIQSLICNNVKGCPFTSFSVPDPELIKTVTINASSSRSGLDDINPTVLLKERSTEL
Protocol: as §1, §2

Akt = Akt colorimetric in cell ELISA in A549 cells; format: cell-based, human; settings: 24 hours; for Akt inhibition (in words): compared to cisplatin and GSK690693
Protocol: After 10.000 cells were seeded in the wells, they were kept in the incubator for 24 hours. […] Briefly, the medium was removed from the wells and 100 µL of 4% formaldehyde was added. The plate was incubated in a fume hood for 15 minutes. Formaldehyde was removed and the plate was washed twice with 1X […] (TBS) such as to be 100 µL/well. 1X TBS was removed and 100 µL 1X permeabilization solution was added to each well and it was kept at room temperature for 15 minutes. After the 1X permeabilization solution was removed, the wells were washed with 100 µL 1X TBS once. 1X TBS was removed and 100 µL quenching solution was added to each well and it was kept at room temperature for 20 minutes. Afterwards, this solution was removed. The plate was washed 1 time with 1X TBS and 100 µL blocking solution was added to the wells and it was kept at room temperature for 30 minutes. At the end of this period, the blocking solution was removed and 50 µL primary antibody was added to the wells. The plate was sealed with a cover and it was incubated overnight at 4 °C. The primary antibody was removed and the plate wells were washed 3 times with 100 µL 1X washing solution. After the washing solution was removed, 100 µL diluted horseradish peroxidase (HRP) conjugate was added and it was incubated at room temperature for 30 minutes. Later on this conjugate was removed and 100 µL 3,3',5,5'-tetramethylbenzidine (TMB) […] was added to each well and the absorbance values were read at 450 nm for 30 minutes. The experiment was carried out in triplicate. The values of the blank wells were subtracted from the values of the untreated control and treated cells. The Akt activity% was determined as the relative absorbance of treated versus untreated control cells.

[3] = IC50/2 concentration (9: 2.88; 11: 0.37; 12: 0.40; 14: 1.32; GSK690693: 3.34; Cisplatin: 11.50 µg/mL)
[4] = IC50/4 concentration (9: 1.44; 11: 0.18; 12: 0.20; 14: 0.66; GSK690693: 1.69; Cisplatin: 5.75 µg/mL)
[5] = IC50 concentration (9: 5.75; 11: 0.73; 12: 0.80; 14: 2.63; GSK690693: 6.75; Cisplatin: 23.00 µg/mL)

Compound	Mitochondrial membrane depolarized (P2) cells% (A549 cells [1]) [%]	Mitochondrial membrane polarized (P1) cells% (A549 cells [1]) [%]	G0/G1% (A549 cells [2]) [%]	G2/M% (A549 cells [2]) [%]	S% (A549 cells [2]) [%]	COX-1 Inhibition% (COX-1) [%]	COX-1 activity (U/mL) (COX-1)	COX-2 Inhibition% (COX-2)	COX-2 activity (U/mL) (COX-2)	Akt Inhibition% (Akt; [3]) [%]	Akt Inhibition% (Akt; [4]) [%]	Akt Inhibition% (Akt; [5])	Akt Inhibition% (Akt; IC50 concentration (9: 5.75; 11: 0.73; 12: 0.80; 14: 2.63; GSK690693: 6.75; Cisplatin: 23.00 µg/mL), listed as cisplatin) [%]	Akt inhibition (in words) (Akt)
N.N.[Cl][Pt][Cl] [Cisplatin, reference compound]	48.00	52.40	45.92	4.00	50.07	24.65	3.08	43.46%	2.38	56.23±1.45	50.46±6.89	59.55±8.44%	59.55	
CS(=O)(=O)c1ccc(C2=Nn3c(CCc4ccc5c(c4)OCO5)nnc3SC2)cc1 [Compound 9]	8.80	91.10	53.29	9.66	37.04	35.21	3.41	32.66%	3.60	7.31±1.48	15.99±1.06	45.47% and 45.47±3.76%		moderate Akt inhibition
FC(F)(F)c1ccc(C2=Nn3c(CCc4ccc5c(c4)OCO5)nnc3SC2)cc1 [Compound 11, 3-[2-(1,3-Benzodioxole-5-yl)ethyl]-6-(4-trifluoromethylphenyl)-7H-[1,2,4]triazolo [3,4-b][1,3,4]thiadiazine]	58.80	41.30	57.29	8.15	34.57	54.18	1.88		1.46	6.66±3.51	0.91±1.29	8.18±3.74%		did not exhibit significant Akt inhibition
Fc1cccc(C2=Nn3c(CCc4ccc5c(c4)OCO5)nnc3SC2)c1 [Compound 12, 3-[2-(1,3-Benzodioxole-5-yl)ethyl]-6-(3-fluorophenyl)-7H-[1,2,4]triazolo [3,4-b] [1,3,4]thiadiazine]	47.00	53.00	54.20	6.52	39.28		2.51	53.52%	1.95	16.67±0.05	19.24±2.43	46.87% and 46.87±4.60%		moderate Akt inhibition
c1ccc(-c2ccc(C3=Nn4c(CCc5ccc6c(c5)OCO6)nnc4SC3)cc2)cc1 [Compound 14, 3-[2-(1,3-Benzodioxole-5-yl)ethyl]-6-(biphenyl-4-yl)-7H-[1,2,4]triazolo[3,4-b] [1,3,4]thiadiazine]	47.20	53.20	54.92	7.91	37.17	2.19	4.15	15.17% and 15.70%	3.56	15.99±3.66	23.51±3.00	44.30% and 44.30±5.68%		moderate Akt inhibition
